The results in this text go back to patent US8883850B2, “Naphthalene carboxamide M1 receptor positive allosteric modulators” (Merck Sharp & Dohme Corp., priority 2010, dated 2014).

For one assay, the target named is T1, acetylcholine muscarinic M1 receptor (Homo sapiens, UniProt P11229).
T1 construct: expressed in transfected cells; host or cells: CHOnfat (CHO cells; also called CHOK1/hM1)
T1 sequence (P11229 1-460): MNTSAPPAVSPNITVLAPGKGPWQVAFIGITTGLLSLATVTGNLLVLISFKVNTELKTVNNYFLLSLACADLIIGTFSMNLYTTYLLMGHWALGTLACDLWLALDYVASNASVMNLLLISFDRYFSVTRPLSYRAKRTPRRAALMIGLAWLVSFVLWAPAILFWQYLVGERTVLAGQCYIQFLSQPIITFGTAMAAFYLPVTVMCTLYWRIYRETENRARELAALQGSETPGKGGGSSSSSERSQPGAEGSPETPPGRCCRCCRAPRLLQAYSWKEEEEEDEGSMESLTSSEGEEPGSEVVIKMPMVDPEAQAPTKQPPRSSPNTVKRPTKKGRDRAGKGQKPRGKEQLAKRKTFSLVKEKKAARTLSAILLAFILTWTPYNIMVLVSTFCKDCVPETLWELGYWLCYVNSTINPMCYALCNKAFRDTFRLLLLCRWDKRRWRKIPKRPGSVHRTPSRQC
In words: M1 FLIPR assay: intracellular calcium, potentiation of acetylcholine EC20. The settings on record: M1 activity in a FLIPR assay; Table 3, Examples 1-12; read-out: M1 Potential. It counts as cell-based. The procedure: The assay studies the effect of one or several concentrations of test compounds on basal or acetylcholine-stimulated Ca^2+ levels using FLIPR.
For each compounds of the invention that was evaluated, the compound is prepared and subjected to a pre-incubation period of four minutes. Thereafter, a single EC20 concentration of acetylcholine is added to each well (3 nM final). The intracellular Ca^2+ level of each sample is measured and compared to an acetylcholine control to determine any modulatory activity.
Cells: CHOnfat/hM1, hM2, hM3 or hM4 cells are plated 24 hours before the assay at a density of 18,000 cells/well (100 μL) in a 384 well plate. CHOnfat/hM1 and CHOnfat/hM3 Growth Medium: 90% DMEM (Hi Glucose); 10% HI FBS; 2 mM L-glutamine; 0.1 mM NEAA; Pen-Strep; and 1 mg/ml Geneticin, are added. For M2Gqi5CHOnfat and M4Gqi5CHOnfat cells, an additional 600 μg/ml hygromycin is added.
Dye Loading Buffer: Assay Buffer plus 1% Fetal Bovine Serum and Fluo-4AM/Pluronic Acid Mixture. […] 20% Pluronic acid solution stock, with a concentration of 0.04% in Buffer, 0.02% in Assay. 65 μL of 2 mM Fluo-4AM are mixed with 130 μL of 20% pluronic acid. The resulting solution and 650 μL FBS is added to the assay buffer for a total volume of 65 mL.
Positive Controls: 4-Br-A23187: 10 mM in DMSO, final concentration 10 μM. Acetylcholine: […], working stock at both 20 μM and 30 μM in assay buffer, final concentration of 10 μM. This is used to check the maximum stimulation of the CHOK1/hM1 cells. 20 μM (2×) acetylcholine is added in the preincubation part of the assay, and the 30 μM (3×) stock is added in the second part. (EC20)Acetylcholine: 10 mM in water, working stock of 9 nM (3×), and final concentration in assay is 3 nM. This is used after the preincubation with test compounds. Addition of the EC20 Acetylcholine to each well with a test compound will ascertain any modulator activity. 24 wells contain 3 nM Acetylcholine alone as a control.
Four 96-well plates are combined into a 384-well plate using Mosquito Nanoliter Pipetting System by transferring 1 μl of serial diluted compounds to each well, and 1 mM acetylcholine (100× stock concentration) were added as a control. Using Temo, 49 μl assay buffer is added to each well of the 384-well plate right before assay.
In a 96-well Whatman 2 ml Uniplate, 9 nM Acetylcholine (3×) is pipetted into wells corresponding to the screening compounds, and into control wells. The 30 μM acetylcholine control (3×) is added into control wells, and the 3× agonist plate is transferred into a 384 well plate.
Cells are washed three times with 100 μL of buffer, leaving 30 μL of buffer in each well. Using Multimek, 30 μL of Dye Loading Buffer is added into each well and incubated at 37° C., 5% CO2 for up to one hour.
After 60 minutes, the cells are washed three times with 100 μL of buffer, leaving 30 μL of buffer in each well. The cell plate, screening plate, and agonist addition plates are placed on the platform in the FLIPR and the door closed. A signal test to check background fluorescence and basal fluorescence signal is performed. Laser intensity is adjusted if necessary.
Four minutes of pre-incubation with the test compounds is provided to determine any agonist activity on the M1 receptor by comparison to the […] acetylcholine control. After pre-incubation, the EC20 value of acetylcholine (3 nM final) is added to determine any modulator activity.
(In general: Calcium flux is commonly read through the fluorescence of an indicator in the cells.)
For `COc1ccc(Cc2cc(C(=O)O)c(OC)c3ccccc23)cc1` [Example 1, 1-Methoxy-4-(4-methoxybenzyl)-2-naphthoic acid], the EC50 was found to be 3320 nM.

For `COc1c(C(=O)N[C@H]2CCCC[C@@H]2O)cc(Cc2ccc(C)nc2)c2ccccc12` [Example 4], the EC50 was determined as 121 nM.

Consider `COc1c(C(=O)N[C@H]2CCCC[C@@H]2O)cc(Cc2ccc(-n3cccn3)nc2)c2ccccc12` [Example 7, N-[(1S,2S)-2-Hydroxycyclohexyl]-1-methoxy-4-{[6-(1H-pyrazol-1-yl)pyridine-3-yl]methyl}-2-naphthamide], for which the EC50 stood at 82 nM.

As for `COc1c(C(=O)N[C@H]2CCCC[C@@H]2O)cc(CN2CCN(c3cnn(C)c3)CC2)c2ccccc12` [Example 8, N-[(1S,2S)-2-Hydroxycyclohexyl]-1-methoxy-4-{[4-(1-methyl-1H-pyrazol-4-yl)piperazin-1-yl]methyl}-2-naphthamide], the EC50 was found to be 3880 nM.

Turning to `COc1c(C(=O)N[C@H]2CCOC[C@@H]2O)cc(Cc2ccc(Cl)nc2)c2ccccc12` [Example 10, 4-[(6-Chloropyridin-3-yl)methyl]-N-[(3R,4S)-3-hydroxytetrahydro-2H-pyran-4-yl]-1-methoxy-2-naphthamide], the EC50 was determined as 56 nM.

With `CCOc1c(C(=O)N[C@H]2CCCC[C@@H]2O)cc(Cc2ccc(Cl)nc2)c2ccccc12` [Example 12], the EC50 is 985 nM.

Consider `COc1c(C(=O)N[C@H]2CCCC[C@@H]2O)cc(Cc2ccc(-c3cnn(C)c3)nc2)c2ccccc12` [Example 5, N-[(1S,2S)-2-Hydroxycyclohexyl]-1-methoxy-4-{[6-(1-methyl-1H-pyrazol-4-yl)pyridine-3-yl]methyl}-2-naphthamide], for which the EC50 came out at 17 nM.

`COc1c(C(=O)N[C@H]2CCCC[C@@H]2O)cc(Cc2ccnc(SC)c2)c2ccccc12` [Example 11, N-[(1S,2S)-2-Hydroxycyclohexyl]-1-methoxy-4-{[2-(methylthio)pyridin-4-yl]methyl}-2-naphthamide]: the EC50 stood at 281 nM.

For the compound `CCc1ccc(Cc2cc(C(=O)N[C@H]3CCCC[C@@H]3O)c(OC)c3ccccc23)cn1` [Example 9, N-[(1S,2S)-2-Hydroxycyclohexyl]-1-methoxy-4-[(6-ethylpyridin-3-yl)methyl]-2-naphthamide], the EC50 was 190 nM.

On to `COc1c(C(=O)N[C@H]2CCCC[C@@H]2O)cc(Cc2ccc(Cl)nc2)c2ccccc12` [Example 3, 4-[(6-Chloropyridin-3-yl)methyl]-N-[(1S,2S)-2-hydroxycyclohexyl]-1-methoxy-2-naphthamide], for which the EC50 is 260 nM.

As to `O=C(N[C@H]1CCCC[C@@H]1O)c1cc(Cc2ccc(-n3cccn3)nc2)c2ccccc2c1O` [Example 6, 1-Hydroxy-N-[(1S,2S)-2-hydroxycyclohexyl]-4-{[6-(1H-pyrazol-1-yl)pyridine-3-yl]methyl}-2-naphthamide], the EC50 came to 4710 nM.

With `COc1c(C(=O)O)cc(Cc2ccc(-n3cccn3)cc2)c2ccccc12` [Example 2, 1-Methoxy-4-[4-(1H-pyrazol-1-yl)benzyl]-2-naphthoic acid], the EC50 is 574 nM.

Staying with this assay, now noted: inflection point value from FLIPR assay; CHOnfat/hM1 cells; 4 min pre-incubation, then acetylcholine EC20 (3 nM final); Table 1, Formula (III); read-out: M1 IP Value.
`COc1c(C(=O)O)cc(Cc2ccc(NC(C)=O)cc2)c2ccccc12` [Compound 1-2]: the EC50 amounted to 1550 nM.

Turning to `COc1c(C(=O)N[C@H]2CCCC[C@@H]2O)cc(Cc2ccnc(C)c2)c2ccccc12` [Compound 1-11], the EC50 was determined as 224 nM.

Consider `COc1c(C(=O)O)cc(Cc2ccc(-c3ccccc3)cc2)c2ccccc12` [Compound 1-1], for which the EC50 was 872 nM.

For the compound `COc1cc(Cc2cc(C(=O)N[C@H]3CCCC[C@@H]3O)c(OC)c3ccccc23)ccn1` [Compound 1-12], the EC50 came out at 140 nM.

For `COc1c(C(=O)N[C@H]2CCOC[C@@H]2O)cc(Cc2ccc(C)nc2)c2ccccc12` [Compound 1-13], the EC50 came to 87 nM.

Consider `COc1ccc(Cc2cc(C(=O)N[C@H]3CCCC[C@@H]3O)c(OC)c3ccccc23)cn1` [Compound 1-7], for which the EC50 was determined as 280 nM.

Consider `COc1c(C(=O)N[C@H]2CCCC[C@@H]2O)cc(Cc2ccc(-c3cccnc3)nc2)c2ccccc12` [Compound 1-3], for which the EC50 was determined as 24 nM.

Take `COc1c(C(=O)N[C@H]2CCOC[C@@H]2O)cc(Cc2ccc(-c3ccnc(C)c3)nc2)c2ccccc12` [Compound 1-14]: the EC50 worked out at 6.8 nM.

Turning to `COc1c(C(=O)N[C@H]2CCCC[C@@H]2O)cc(Cc2ccc(SC)nc2)c2ccccc12` [Compound 1-9], the EC50 was found to be 169 nM.

Regarding `COc1c(C(=O)N[C@H]2CCOC[C@@H]2O)cc(Cc2ccc(-c3ccc(C)nc3)nc2)c2ccccc12` [Compound 1-15], the EC50 worked out at 22 nM.

The assay is the same for the next values; noted with them: inflection point value from FLIPR assay; CHOnfat/hM1 cells; 4 min pre-incubation, then acetylcholine EC20 (3 nM final); Table 2, Formula (IV); read-out: M1 IP Value.
Regarding `C=CCOc1c(C(=O)N[C@H]2CCCC[C@@H]2O)cc(Cc2ccc(Cl)nc2)c2ccccc12` [Compound 2-2], the EC50 amounted to 1140 nM.
